Data published in ChEMBL document CHEMBL1681782, “A novel alkaloid, aristopyridinone A and anti-inflammatory phenanthrenes isolated from Aristolochia manshuriensis” (Bioorg Med Chem Lett, 2011).
Values after ≈ are worked out from the molar mass of the structure shown.

Key:
[1] = Antiinflammatory activity in human neutrophils assessed as inhibition of fMLP/CB-induced elastase release after 5 mins; assay type: functional, cell-based; conditions: Neutrophil
[2] = Antiinflammatory activity in human neutrophils assessed as inhibition of fMLP/CB-induced superoxide anion generation after 5 mins; assay type: functional, cell-based; conditions: Neutrophil
Neutrophil [3] = assay: Ratio of Genistein IC50 to compound IC50 for inhibition of fMLP/CB-induced elastase release in human neutrophils; assay type: functional
Neutrophil [4] = assay: Ratio of Genistein IC50 to compound IC50 for inhibition of fMLP/CB-induced superoxide anion generation in human neutrophils; assay type: functional

| IC50 [1] [µg/mL] | IC50 [2] [µg/mL] | SMILES | Ratio IC50 (Neutrophil [3]) | Ratio IC50 (Neutrophil [4]) |
| --- | --- | --- | --- | --- |
| 0.2 (≈ 0.716 µM) | 0.12 (≈ 0.43 µM) | O=C1Nc2cc3ccc(O)cc3c3c4c(cc1c23)OCO4 | 35 | 4.5 |
| > 10 | > 10 | COC(=O)c1cc2c(c3c1c([N+](=O)[O-])cc1c(OC)cccc13)OCO2 | – | – |
| 4.11 (≈ 15.5 µM) | > 10 | NC(=O)c1cc2c(c3c1ccc1ccccc13)OCO2 [ARISTOLAMIDE II] | – | – |
| > 10 | > 10 | COc1cccc2c1ccc1c(C(N)=O)cc3c(c12)OCO3 [ARISTOLAMIDE] | – | – |
| > 10 | > 10 | COC(=O)c1cc2c(c3c1ccc1c(OC)cccc13)OCO2 [METHYL ARISTOLATE] | – | – |

Further lines, the compound ahead of its results:

| SMILES | IC50 [1] [µg/mL] | IC50 [2] [µg/mL] | Ratio IC50 (Neutrophil [3]) | Ratio IC50 (Neutrophil [4]) |
| --- | --- | --- | --- | --- |
| COC(=O)c1cc2c(c3c1ccc1c(OC)cc(OC)cc13)OCO2 [ARISTOLIC ACID METHYL ESTER] | > 10 | > 10 | – | – |
| O=C(O)c1cc2c(c3c1c([N+](=O)[O-])cc1ccc(O)cc13)OCO2 [ARISTOLOCHIC ACID C] | > 10 | > 10 | – | – |
| COc1cccc2c1cc([N+](=O)[O-])c1c(C(=O)O)cc3c(c12)OCO3 [ARISTOLOCHIC ACID] | > 10 | > 10 | – | – |
| COc1cc(O)cc2c1cc([N+](=O)[O-])c1c(C(=O)O)cc3c(c12)OCO3 [ARISTOLOCHIC D] | 8.49 (≈ 23.8 µM) | 5.78 (≈ 16.2 µM) | – | – |
| O=c1c(-c2ccc(O)cc2)coc2cc(O)cc(O)c12 [GENISTEIN] | 6.99 (≈ 25.9 µM) | 0.54 (≈ 2 µM) | – | – |
